Results published in US7432045B2 (priority 2003, dated 2008).
Like-named read-outs stand apart in the source and are kept apart here. Peptide text beside a SMILES is read from it. * marks the point of attachment. code b = biotin-ε-aminohexanoyl, O=C(CCCC[C@@H]1SC[C@@H]2NC(=O)N[C@@H]21)NCCCCCC(=O)*; Biotin = O=C1N[C@H]2[C@H](CS[C@H]2CCCCC(=O)*)N1; Ahx = NCCCCCC(=O)O

Tests used:
in vitro = settings: African green monkey
HSV-1 KOS mutant hrR3 [1] = assay: Inactivation of pre-adsorbed virus (virus inactivation); type: cell-based; settings: 33° C.; read-out: Virus Inactivation IC50 (pre-adsorbed virus)
Experimental: (§1) Two assays were used to assess the ability of the TAT peptides to inhibit infection of Vero cells with the hrR3 virus. In both assays, the virus was preadsorbed to cells at 4° C. and entry was initiated in the presence of peptide by shifting the cultures to a permissive temperature (30-37° C.). One hour later, the peptide was rinsed off. The entry blocking activity was measured in half of the cultures, in which any extracellular virus remaining after the peptide treatment was inactivated with low pH citrate buffer. The rest of the cultures were exposed to PBS instead of citrate buffer and used to measure virus inactivation. Virus inactivation depended on persistent effects of the peptide lasting for a period of eight hours. At the end of that period, all cultures were fixed and infected cells were detected by staining with X-gal.
(§2) Virus (m.o.i.=0.025) was preadsorbed to Vero cells for 1 h at 4° C. before cultures were exposed to TAT-C (FIG. 15A), bTAT-9X (FIG. 15B), or n50,51TAT-C (FIGS. 15C, 15D) for 1 h at 33 (FIGS. 15A, 15B), 31 (FIG. 15C), or 37° C. (FIG. 15D). […] Inhibition of entry was measured in the citrate-treated cultures, in which any remaining external virus was inactivated immediately following exposure to peptide (●). Persistent virus inactivation lasting, at least in part, for the 8 h period following exposure to peptide, was measured in the PBS-treated cultures (◯). The IC50s measured in these experiments are included in Table 5.

HSV-1 KOS mutant hrR3 [2] = assay: LacZ+ virus (hrR3) entry assay with pre-adsorbed virus (entry block); type: cell-based
Experimental: LacZ^+ virus (hrR3) entry assay: Confluent Vero cell cultures in 96-well microtiter plates were switched to Hepes-buffered serum-free DMEM, cooled on ice to 4° C. for 30 min, and infected with hrR3 for 1 hour at 4° C. in 40 μL of medium. Unattached virus was removed by rinsing with ice-cold medium. Treatments with antiviral peptide SEQ ID NO:1, referred to as EB, or a control peptide which comprised the RRKK tetra-peptide (SEQ ID NO:16) attached to a scrambled version of the membrane transiting peptide RRKKLAALPLVLAAPLAVLA (SEQ ID NO:17) (referred to as EBX), or mock-treatments with peptide-free medium were carried out in serum-free DMEM as indicated. Virus entry was initiated by transferring cultures to 37° C. To inactivate any remaining extracellular virus, cultures were rinsed with PBS and exposed to low pH citrate buffer (40 mM citric acid, 10 mM KCl, 135 mM NaCl, pH 3.0, according to Highlander et al., J. Virol. 61:3356 (1987), for 1 min at 23° C. The citrate was rinsed off with PBS and cultures were maintained in serum-supplemented DMEM until they were fixed with 0.5% gluteraldehyde in 5×PBS for 30 min at 23° C., stained for β-galactosidase activity for 1 hour or overnight at 23° C. with X-gal (Fisher Biotech; BP1615-1) in 1×PBS containing […], 1.3 mM K4Fe(CN)6, and 1.3 mM K3Fe(CN)6, and scored for the presence of blue […] cells.
In these studies, the hrR3 virus was pre-adsorbed to cells for 1 hour at 4° C. before ice cold 25 μM EB or EBX were added in serum-free DMEM. After an additional 1 hour at 4° C., cultures were shifted to 37° C. to initiate virus entry. At 15 min intervals following the temperature shift, any virus remaining outside the cells was inactivated by washing the cultures with low pH citrate buffer. Cultures were then rinsed and returned to peptide-free serum-supplemented DMEM until they were fixed and stained for β-galactosidase 8 hours after the temperature shift.
as §1, §2

HSV-1 KOS mutant hrR3 [3] = settings: read-out: post-entry effects IC50; peptide added after citrate treatment, 8 h
[4] = test system: Vero, HeLa, CV-1PD, TM-1, DP-9, CEMx174, NIKS, W12E cells; assay: MTS assay, eight cell lines; settings: eight cell lines
hrR3 = assay: Virucidal assay; type: cell-based, HSV-1
Experimental: […] The treated virus was diluted 200-fold with serum-supplemented DMEM and assayed for infectivity approximately 1 hour later in microtiter wells seeded with Vero cells (3.5×10^4 cells/well) 1 d earlier. Forty or 100 microliter volumes of diluted virus were adsorbed for 1 or 2 h at 37° C. and lacZ^+ cells were scored 8 hours later. In some experiments, aliquots of diluted virus were first dialyzed (Spectra/Por; MWCO 12-14,000) overnight at 4° C. against a 60-fold excess volume of Hepes-buffered serum-supplemented DMEM or forced by syringe through 0.22 μm membranes (Millex-GV; Millipore) before the remaining infectious virus was assayed.

[5] = 33° C., read-out: Entry Block IC50

CC(C)C[C@H](NC(=O)[C@@H](NC(=O)[C@H](C)NC(=O)[C@H](CC(C)C)NC(=O)[C@@H]1CCCN1C(=O)[C@H](C)NC(=O)[C@H](C)NC(=O)[C@H](CC(C)C)NC(=O)[C@@H](NC(=O)[C@H](CC(C)C)NC(=O)[C@@H]1CCCN1C(=O)[C@H](CC(C)C)NC(=O)[C@H](C)NC(=O)[C@H](C)NC(=O)[C@H](CC(C)C)NC(=O)[C@@H]1CCCN1C(=O)[C@H](CCCNC(=N)N)NC(=O)[C@H](CCCNC(=N)N)NC(=O)[C@H](CCCNC(=N)N)NC(=O)[C@H](CCC(N)=O)NC(=O)[C@H](CCCNC(=N)N)NC(=O)[C@H](CCCNC(=N)N)NC(=O)[C@H](CCCCN)NC(=O)[C@H](CCCCN)NC(=O)[C@H](CCCNC(=N)N)NC(=O)CN)C(C)C)C(C)C)C(=O)N[C@@H](C)C(=O)O [TAT-17] (H-GRKKRRQRRRPLAALPLVLAAPLAVLA-OH)
IC50 (in vitro): ~200 µM
IC50 (HSV-1 KOS mutant hrR3 [1]): 8.3 µM
IC50 (HSV-1 KOS mutant hrR3 [2]; [5]): 2.4 µM

CC(C)C[C@H](NC(=O)CCCCCNC(=O)CCCC[C@@H]1SC[C@@H]2NC(=O)N[C@@H]21)C(=O)N[C@@H](C)C(=O)N[C@H](C(=O)N[C@@H](CC(C)C)C(=O)N[C@@H](C)C(=O)N1CCC[C@H]1C(=O)NCC(=O)N[C@@H](CCCNC(=N)N)C(=O)N[C@@H](CCCCN)C(=O)N[C@@H](CCCCN)C(=O)N[C@@H](CCCNC(=N)N)C(=O)N[C@@H](CCCNC(=N)N)C(=O)N[C@@H](CCC(N)=O)C(=O)N[C@@H](CCCNC(=N)N)C(=O)N[C@@H](CCCNC(=N)N)C(=O)N[C@@H](CCCNC(=N)N)C(=O)N[C@@H](CS)C(N)=O)C(C)C [b6TAT-C, b-LAVLAPGRKKRRQRRRC-amide] ({Biotin-Ahx}-LAVLAPGRKKRRQRRRC-NH2)
IC50 (HSV-1 KOS mutant hrR3 [3]): 190 µM
IC50 (HSV-1 KOS mutant hrR3 [1]): 25 µM
IC50 (HSV-1 KOS mutant hrR3 [2]; [5]): 5.3 µM

CC(C)C[C@H](NC(=O)CCCCCNC(=O)CCCC[C@@H]1SC[C@@H]2NC(=O)N[C@@H]21)C(=O)N[C@@H](C)C(=O)N[C@@H](C)C(=O)N[C@@H](CC(C)C)C(=O)N1CCC[C@H]1C(=O)N[C@@H](CC(C)C)C(=O)N[C@H](C(=O)N[C@@H](CC(C)C)C(=O)N[C@@H](C)C(=O)N[C@@H](C)C(=O)N1CCC[C@H]1C(=O)N[C@@H](CC(C)C)C(=O)N[C@@H](C)C(=O)N[C@H](C(=O)N[C@@H](CC(C)C)C(=O)N[C@@H](C)C(=O)N1CCC[C@H]1C(=O)NCC(=O)N[C@@H](CCCNC(=N)N)C(=O)N[C@@H](CCCCN)C(=O)N[C@@H](CCCCN)C(=O)N[C@@H](CCCNC(=N)N)C(=O)N[C@@H](CCCNC(=N)N)C(=O)N[C@@H](CCC(N)=O)C(=O)N[C@@H](CCCNC(=N)N)C(=O)N[C@@H](CCCNC(=N)N)C(=O)N[C@@H](CCCNC(=N)N)C(=O)N[C@@H](CS)C(N)=O)C(C)C)C(C)C [b17TAT-C] ({Biotin-Ahx}-LAALPLVLAAPLAVLAPGRKKRRQRRRC-NH2)
IC50 (in vitro): ~200 µM
IC50 (HSV-1 KOS mutant hrR3 [1]): 9.4 µM
IC50 (HSV-1 KOS mutant hrR3 [2]; [5]): 5.4 µM

CC(C)C[C@H](NC(=O)[C@H](C)NC(=O)[C@H](CC(C)C)NC(=O)[C@H](CC(C)C)NC(=O)[C@@H](NC(=O)[C@H](C)NC(=O)[C@@H]1CCCN1C(=O)[C@H](CC(C)C)NC(=O)[C@H](CC(C)C)NC(=O)[C@H](C)NC(=O)[C@@H](NC(=O)[C@H](C)NC(=O)[C@H](C)NC(=O)[C@H](CCCCN)NC(=O)[C@H](CCCCN)NC(=O)[C@H](CCCNC(=N)N)NC(=O)[C@H](CCCNC(=N)N)NC(=O)CCCCCNC(=O)CCCC[C@@H]1SC[C@@H]2NC(=O)N[C@@H]21)C(C)C)C(C)C)C(=O)N[C@@H](CC(C)C)C(=O)N[C@@H](C)C(=O)N1CCC[C@H]1C(=O)O [bEB] ({Biotin-Ahx}-RRKKAAVALLPAVLLALLAP-OH)
IC50 (in vitro): 100 µM

CC[C@H](C)[C@H](NC(=O)[C@H](CCCCN)NC(=O)[C@@H](NC(=O)[C@H](CCC(N)=O)NC(=O)[C@H](CCCNC(=N)N)NC(=O)CCCCCNC(=O)CCCC[C@@H]1SC[C@@H]2NC(=O)N[C@@H]21)[C@@H](C)CC)C(=O)N[C@@H](Cc1ccccc1)C(=O)N[C@@H](Cc1ccccc1)C(=O)N1CCC[C@H]1C(=O)N[C@@H](CC(N)=O)C(=O)N[C@@H](CCCNC(=N)N)C(=O)N[C@@H](CCCNC(=N)N)C(=O)N[C@@H](CCSC)C(=O)N[C@@H](CCCCN)C(=O)N[C@@H](Cc1ccccc1)C(=O)N[C@@H](CCCCN)C(=O)N[C@@H](CCCCN)C(N)=O [bHOMFF, b - RQIKI F FPNRRMK F KK-amide] ({Biotin-Ahx}-RQIKIFFPNRRMKFKK-NH2)
IC50 (in vitro): > 100 µM
cytotoxicity to cells (MTS), overall [4]: generally not cytotoxic

CC(C)C[C@H](NC(=O)[C@@H](NC(=O)[C@H](C)NC(=O)[C@H](CC(C)C)NC(=O)[C@@H]1CCCN1C(=O)[C@H](C)NC(=O)[C@H](C)NC(=O)[C@H](CC(C)C)NC(=O)[C@@H](NC(=O)[C@H](CC(C)C)NC(=O)[C@@H]1CCCN1C(=O)[C@H](CC(C)C)NC(=O)[C@H](C)NC(=O)[C@H](C)NC(=O)[C@H](CC(C)C)NC(=O)[C@@H]1CCCN1C(=O)[C@H](CCCNC(=N)N)NC(=O)[C@H](CCCNC(=N)N)NC(=O)[C@H](CCCNC(=N)N)NC(=O)[C@H](CCC(N)=O)NC(=O)[C@H](CCCNC(=N)N)NC(=O)[C@H](CCCNC(=N)N)NC(=O)[C@H](CCCCN)NC(=O)[C@H](CCCCN)NC(=O)[C@H](CCCNC(=N)N)NC(=O)CNC(=O)[C@H](Cc1ccc(O)cc1)NC(=O)CCCCCNC(=O)CCCC[C@@H]1SC[C@@H]2NC(=O)N[C@@H]21)C(C)C)C(C)C)C(=O)N[C@@H](C)C(=O)O [bTAT-17] ({Biotin-Ahx}-YGRKKRRQRRRPLAALPLVLAAPLAVLA-OH)
IC50 (in vitro): ~200 µM
IC50 (HSV-1 KOS mutant hrR3 [1]): 6.6 µM
IC50 (HSV-1 KOS mutant hrR3 [2]; [5]): 2.4 µM

N=C(N)NCCC[C@H](NC(=O)CNC(=O)CCCCCNC(=O)CCCC[C@@H]1SC[C@@H]2NC(=O)N[C@@H]21)C(=O)N[C@@H](CCCCN)C(=O)N[C@@H](CCCCN)C(=O)N[C@@H](CCCNC(=N)N)C(=O)N[C@@H](CCCNC(=N)N)C(=O)N[C@@H](CCC(N)=O)C(=O)N[C@@H](CCCNC(=N)N)C(=O)N[C@@H](CCCNC(=N)N)C(=O)N[C@@H](CCCNC(=N)N)C(=O)N[C@@H](CS)C(N)=O [bTAT-C, b-GRKKRRQRRRC-amide]
IC50 (HSV-1 KOS mutant hrR3 [3]): 175 µM
IC50 (HSV-1 KOS mutant hrR3 [1]): 27 µM
IC50 (HSV-1 KOS mutant hrR3 [2]; [5]): 5.8 µM

b - KLALKLALKALKAALKLA-amide ({code b}-KLALKLALKALKAALKLA-NH2; SMILES CC(C)C[C@H](NC(=O)[C@H](C)NC(=O)[C@H](CCCCN)NC(=O)[C@H](CC(C)C)NC(=O)[C@H](C)NC(=O)[C@H](CC(C)C)NC(=O)[C@H](CCCCN)NC(=O)[C@H](CC(C)C)NC(=O)[C@H](C)NC(=O)[C@H](CC(C)C)NC(=O)[C@H](CCCCN)NC(=O)CCCCCNC(=O)CCCC[C@@H]1SC[C@@H]2NC(=O)N[C@@H]21)C(=O)N[C@@H](CCCCN)C(=O)N[C@@H](C)C(=O)N[C@@H](C)C(=O)N[C@@H](CC(C)C)C(=O)N[C@@H](CCCCN)C(=O)N[C@@H](CC(C)C)C(=O)N[C@@H](C)C(N)=O) [bKLAd11,12]
IC50 (HSV-1 KOS mutant hrR3 [2]; read-out: Entry Blocking Activity IC50): 23 µM
IC50 (hrR3; 4° C., read-out: Virucidal Activity 4° C. IC50): 300 µM
IC50 (hrR3; 37° C., read-out: Virucidal Activity 37° C. IC50): 61 µM
